Measured values published in patent publication US20260234217A1, “USE OF BMP RECEPTOR ALK1 INHIBITORS IN OSTEOARTHRITIS THERAPIES” (The Regents of the University of California, priority 2023, published 2026).

What was measured:
[1] = system: OA associated pain in DMM mice; assay: Von Frey pain assessment (50% paw withdrawal threshold) in DMM mice; type: in vivo, mouse
Procedure: In a functional assessment of BMP-KI and ALK1-Fc, we measured pain and sensitivity in mice following DMM surgery and treatment with BMP-KI and ALK1-Fc using Von Frey analysis. Mice underwent DMM surgery at 3 months of age and were treated with BMP-KI or ALK1Fc once a week for 8 weeks following surgery. Mice underwent Von Frey testing immediately prior to surgery, and each week following surgery. Von Frey testing involved exposure of the injured limb hindfoot plantar surface to a monofilament of a designated caliber (measured in grams). […] The 50% PWT was then calculated mathematically as previously described(54). A higher 50% paw withdrawal threshold indicates less sensitivity in the surgically treated limb. Mice undergoing sham surgery were also tested as a control.
Pain was assessed using the 50% paw withdrawal threshold (PWT) using Von Frey filaments and the up-and-down method as described(86, 87). Each mouse was tested three times by evaluators blinded to treatment group, and the average value was calculated. Whether or not each of the three acquired values is normal is based on the Jarque-Baera test. 4-5 mice were analyzed per treatment condition. Significance was assessed using two-way ANOVA and Tuckey's multiple comparisons test.

[2] = system: osteophytes in the DMM joint; assay: Micro-CT total knee osteophyte volume in DMM mice; type: in vivo, mouse
Procedure: (§1) Mice (C57BL/6J) were purchased from The Jackson Laboratory. All mice were housed on a 12-hour light/dark cycle with unrestricted access to standard mouse food and water. The DMM model of injury induced OA was performed on mice at 12 weeks of age by opening the joint capsule and transecting the medial meniscotibial ligament in the right knee, destabilizing the medial meniscus(48). A sham operation was performed on the left knee of each mouse by observing the medial meniscotibial ligament but not transecting it. Mice were administered carprofen 5 mg/kg (Zoetis; 1041283) subcutaneously 30 minutes prior to surgery, immediately post-surgery, and 24 hours post-surgery to minimize pain.
(§2) Treatments were initiated either 1 day after DMM surgery once a week for 8 weeks, or 1 month after DMM surgery twice a week for 4 weeks. Mice were sacrificed at 20 weeks of age (2 months after surgery). To understand the level of articular cartilage damage 1 month after DMM surgery, a cohort of mice was sacrificed at 16 weeks old (FIG. 4).
Dissected knee joints underwent Micro-CT analysis using the Skyscan 1172 in vivo μCT scanner (Bruker micro-CT, Kontich, Belgium) at 55 kV and 181 μA, with a resolution of 10 μm. […] Average osteophyte volume was analyzed with Prism 9 Software (GraphPad) using two-way ANOVA and Tukey's multiple comparisons test post-hoc. […]

[3] = target: ALK3 (Homo sapiens, UniProt P36894); assay: kinase assay (biochemical IC50, literature); conditions: concentration of 200 nM
[4] = system: articular cartilage of DMM mice; assay: DMM model of post-traumatic OA: Safranin-O/Fast Green staining and OARSI scoring of articular cartilage damage; type: in vivo, mouse; conditions: for articular cartilage damage (SOFG staining, OARSI scoring): treatment from the time of DMM surgery, weekly, compared to PBS
Procedure: FIG. 13. Growth differentiation factor 11 (GDF11, see, e.g., NCBI Reference Sequence: NP_005802.1) competes with BMP9/10 for binding to BMP type II receptors ACVRIIA or ACVRIIB, thereby preventing the association of BMP type I receptor ALK1 with ACVRIIA/B and decreasing BMP signaling. […] We tested this hypothesis by locally injecting GDF11 (50 ng/dose) into the knee joint space at mice with established post-traumatic OA. (A) Experimental Outline (B) Safranin-O/Fast Green (SOFG) Staining of sagittal sections of the knee joint, femur (top) and tibia (bottom) for proteoglycan (cartilage; red) and bone (green) at week 8 after DMM or Sham surgery. Mice were treated with either GDF11, or Phosphate Buffered Saline (PBS) after received surgery (n=5/group). 4-Week DMM mice were sacrificed 4 weeks after surgery and received no treatment (n=6). AC damage indicated by dotted line. (C-D) Osteoarthritis Research Society International (OARSI) scoring of AC damage in the (C) medial tibial plateau and (D) medial femoral condyle in representative sections of each treatment at week 4 or 8 after surgery. All data are shown as mean bar+/−standard deviation *p<0.05. Data analysis performed was one-way ANOVA. Scale 250 uM.
as §1, §2
Knee joint samples were harvested and fixed in 4% Paraformaldehyde for 3 days, and subsequently decalcified in formic acid (Statlab; 1414-32) for 3 days and embedded in paraffin. Sagittal sections 7 micrometers in thickness were taken and stained using Safranin-O (Sigma-Aldrich; S8884-25G), fast green (Sigma-Aldrich; F7258-25G), and hematoxylin (Fisherbrand; 245-656) using a standard histology protocol. Images were taken with the Olympus BX60 brightfield microscope using a 10× objective lens. Representative sections throughout the medial and lateral portion of side were chosen for histological analysis, resulting in 5 sections being imaged for both portions of the joint.
The 10 total sections per joint chosen for histology received randomized sample numbers and were given to three independent researchers who scored the level of cartilage damage based on OARSI guidelines (84). OARSI scores were analyzed with Prism 9 Software (GraphPad) using two-way ANOVA and Tukey's multiple comparisons test post-hoc. Scoring was performed by at least three experienced investigators blinded to treatment/genotype. Scores were averaged for the medial tibial plateau, medial femoral condyle, lateral tibial plateau, and lateral femoral condyle for each sample.

[5] = delayed treatment, week 8, vs vehicle-treated mice examined 4 weeks after surgery

Sequence of ALK3 (P36894 24-532, species assumed): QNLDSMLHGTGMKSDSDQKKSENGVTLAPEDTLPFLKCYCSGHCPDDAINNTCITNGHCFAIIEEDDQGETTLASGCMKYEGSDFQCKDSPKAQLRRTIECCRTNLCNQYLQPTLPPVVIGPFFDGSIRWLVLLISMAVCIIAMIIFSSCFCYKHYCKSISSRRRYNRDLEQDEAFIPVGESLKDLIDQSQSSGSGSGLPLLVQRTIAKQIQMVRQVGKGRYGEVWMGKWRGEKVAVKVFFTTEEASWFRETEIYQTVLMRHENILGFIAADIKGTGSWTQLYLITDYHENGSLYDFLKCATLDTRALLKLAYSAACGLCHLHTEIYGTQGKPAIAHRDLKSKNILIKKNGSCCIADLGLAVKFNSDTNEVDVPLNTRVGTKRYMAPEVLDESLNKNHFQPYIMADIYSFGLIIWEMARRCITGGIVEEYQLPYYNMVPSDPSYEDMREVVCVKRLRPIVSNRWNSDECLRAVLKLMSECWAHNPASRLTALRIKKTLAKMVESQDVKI

Structure (SMILES): COc1cc(-c2cc(-c3ccc(N4CCNCC4)cc3)cnc2C)cc(OC)c1OC [LDN-214117]
- pain (Von Frey 50% paw withdrawal threshold) ([1]; week 6 after surgery, vs DMM control): did not exhibit an increase in pain
- pain (Von Frey) compared to mice that had received sham surgery ([1]; week 8): no significant difference
- osteophyte volume (MicroCT) ([2]; applied after a 1-month delay): significant reduction in osteophyte volume
- osteophyte volume (MicroCT) ([2]; treated immediately after surgery, compared to vehicle, week 8): reduced osteophyte volume
- effect on ALK3 at the injected concentration [3]: < 25 % IC50
- articular cartilage damage, femoral surface [4, 5]: less damage
- articular cartilage damage, tibial surface [4, 5]: less damage
- articular cartilage damage (OARSI scoring) ([4]; treatment beginning 4 weeks after DMM, examined 8 weeks after surgery, vs vehicle-treated mice at 8 weeks): significantly less damage
- articular cartilage damage (SOFG staining, OARSI scoring) ([4]; week 8): sufficient to prevent degradation of AC
- articular cartilage damage (SOFG staining, OARSI scoring) ([4]; week 8, listed as BMP-KI): protection of articular cartilage
